These results are taken from US11254696B2, “Dianilinopyrimidine compound for inhibiting kinase activity” (Shenzhen Targetrx, Inc., priority 2017, dated 2022).

One series concerns ALK F1174C/V. Conditions: Crizotinib-resistant mutation; cited from earlier work.
The next series has as its target ALK G1202R (Homo sapiens, UniProt Q9UM73, G1202R). To be noted: Crizotinib-resistant mutation; cited from earlier work.
Another series addresses ALK [WT] (Homo sapiens, UniProt Q9UM73). The series is described as follows: Kinase inhibition assay, ALK [WT]. The class given is biochemical.
Another series deals with ALK [L1196M] (Homo sapiens, UniProt Q9UM73, L1196M). Briefly: Kinase inhibition assay, ALK [L1196M]. The class given is biochemical.
Chain of ALK [L1196M] (Q9UM73 19-1620 L1196M): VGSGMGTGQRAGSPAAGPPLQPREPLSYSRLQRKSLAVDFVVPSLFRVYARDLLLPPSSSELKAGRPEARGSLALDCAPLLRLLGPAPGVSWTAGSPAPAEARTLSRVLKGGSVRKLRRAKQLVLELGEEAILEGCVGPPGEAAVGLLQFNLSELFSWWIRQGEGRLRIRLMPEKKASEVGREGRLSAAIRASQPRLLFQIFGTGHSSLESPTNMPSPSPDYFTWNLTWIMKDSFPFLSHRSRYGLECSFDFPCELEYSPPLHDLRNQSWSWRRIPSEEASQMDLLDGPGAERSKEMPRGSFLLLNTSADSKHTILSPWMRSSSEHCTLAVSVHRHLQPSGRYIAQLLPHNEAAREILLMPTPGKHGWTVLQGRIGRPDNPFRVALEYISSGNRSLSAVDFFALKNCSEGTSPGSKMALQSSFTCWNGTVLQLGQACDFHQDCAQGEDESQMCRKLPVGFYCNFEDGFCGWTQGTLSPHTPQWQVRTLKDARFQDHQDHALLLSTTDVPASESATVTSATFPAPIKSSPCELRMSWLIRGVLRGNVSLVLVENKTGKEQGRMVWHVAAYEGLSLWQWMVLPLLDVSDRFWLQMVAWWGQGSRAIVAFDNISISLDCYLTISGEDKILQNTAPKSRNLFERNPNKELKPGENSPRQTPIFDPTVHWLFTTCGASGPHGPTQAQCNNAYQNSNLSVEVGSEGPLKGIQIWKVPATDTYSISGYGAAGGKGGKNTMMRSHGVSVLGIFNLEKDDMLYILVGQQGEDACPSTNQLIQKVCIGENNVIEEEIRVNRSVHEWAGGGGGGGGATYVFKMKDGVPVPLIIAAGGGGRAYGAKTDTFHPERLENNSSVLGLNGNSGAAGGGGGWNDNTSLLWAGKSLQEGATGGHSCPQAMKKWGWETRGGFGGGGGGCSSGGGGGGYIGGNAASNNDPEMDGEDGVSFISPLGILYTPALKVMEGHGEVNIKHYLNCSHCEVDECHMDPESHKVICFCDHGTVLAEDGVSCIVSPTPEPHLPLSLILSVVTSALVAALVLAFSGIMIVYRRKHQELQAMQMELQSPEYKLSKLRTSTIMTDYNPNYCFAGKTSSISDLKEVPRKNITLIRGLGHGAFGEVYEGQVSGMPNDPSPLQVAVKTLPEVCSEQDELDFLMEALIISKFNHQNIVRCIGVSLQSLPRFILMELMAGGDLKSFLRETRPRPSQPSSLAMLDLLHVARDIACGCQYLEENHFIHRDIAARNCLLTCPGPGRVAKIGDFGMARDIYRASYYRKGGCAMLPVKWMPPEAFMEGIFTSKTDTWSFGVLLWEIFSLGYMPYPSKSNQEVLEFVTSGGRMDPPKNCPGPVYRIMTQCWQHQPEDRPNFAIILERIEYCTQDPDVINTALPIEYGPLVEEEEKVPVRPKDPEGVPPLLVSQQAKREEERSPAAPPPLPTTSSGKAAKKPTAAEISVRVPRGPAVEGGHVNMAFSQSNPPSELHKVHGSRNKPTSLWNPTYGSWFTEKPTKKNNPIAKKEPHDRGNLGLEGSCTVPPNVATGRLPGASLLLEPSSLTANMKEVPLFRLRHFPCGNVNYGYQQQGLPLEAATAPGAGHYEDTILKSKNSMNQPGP
The test system of a further series is BaF3 parental. Briefly: Cytotoxicity test (CellTiter-Glo), BaF3 parental. The class given is cell-based. Conditions: Mus musculus, 72 hours, read-out: IC50(nM) parental (Ba/F3). In outline: (§1)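 Anti-proliferative activity measured in Ba/F3 parental (grown with 10 ng/ml IL-3), Ba/F3 EML4-ALK and Ba/F3 EML4-ALK L1196M cells (grown without IL-3). Cells were seeded overnight, then treated with 10 concentrations (top 20 μM, 3-fold dilutions, duplicate) for 72 h at 37 °C. Viability was read by CellTiter-Glo luminescence and IC50 derived from dose-effect curves.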
(ATP-based viability assays read luminescence as a measure of living cells.)

The target of series [1] is T1, BaF3 [EML4-ALK] (Homo sapiens, UniProt Q9UM73).
T1 construct: IC50(nM) ALK (Ba/F3); other: 72 hours, CellTiter-Glo; BaF3 [EML4-ALK]; fused on or other part: Q9HC35 (Echinoderm microtubule-associated protein-like 4)
T1 sequence (Q9UM73 whole entry, change not shown, the tested form may be a part): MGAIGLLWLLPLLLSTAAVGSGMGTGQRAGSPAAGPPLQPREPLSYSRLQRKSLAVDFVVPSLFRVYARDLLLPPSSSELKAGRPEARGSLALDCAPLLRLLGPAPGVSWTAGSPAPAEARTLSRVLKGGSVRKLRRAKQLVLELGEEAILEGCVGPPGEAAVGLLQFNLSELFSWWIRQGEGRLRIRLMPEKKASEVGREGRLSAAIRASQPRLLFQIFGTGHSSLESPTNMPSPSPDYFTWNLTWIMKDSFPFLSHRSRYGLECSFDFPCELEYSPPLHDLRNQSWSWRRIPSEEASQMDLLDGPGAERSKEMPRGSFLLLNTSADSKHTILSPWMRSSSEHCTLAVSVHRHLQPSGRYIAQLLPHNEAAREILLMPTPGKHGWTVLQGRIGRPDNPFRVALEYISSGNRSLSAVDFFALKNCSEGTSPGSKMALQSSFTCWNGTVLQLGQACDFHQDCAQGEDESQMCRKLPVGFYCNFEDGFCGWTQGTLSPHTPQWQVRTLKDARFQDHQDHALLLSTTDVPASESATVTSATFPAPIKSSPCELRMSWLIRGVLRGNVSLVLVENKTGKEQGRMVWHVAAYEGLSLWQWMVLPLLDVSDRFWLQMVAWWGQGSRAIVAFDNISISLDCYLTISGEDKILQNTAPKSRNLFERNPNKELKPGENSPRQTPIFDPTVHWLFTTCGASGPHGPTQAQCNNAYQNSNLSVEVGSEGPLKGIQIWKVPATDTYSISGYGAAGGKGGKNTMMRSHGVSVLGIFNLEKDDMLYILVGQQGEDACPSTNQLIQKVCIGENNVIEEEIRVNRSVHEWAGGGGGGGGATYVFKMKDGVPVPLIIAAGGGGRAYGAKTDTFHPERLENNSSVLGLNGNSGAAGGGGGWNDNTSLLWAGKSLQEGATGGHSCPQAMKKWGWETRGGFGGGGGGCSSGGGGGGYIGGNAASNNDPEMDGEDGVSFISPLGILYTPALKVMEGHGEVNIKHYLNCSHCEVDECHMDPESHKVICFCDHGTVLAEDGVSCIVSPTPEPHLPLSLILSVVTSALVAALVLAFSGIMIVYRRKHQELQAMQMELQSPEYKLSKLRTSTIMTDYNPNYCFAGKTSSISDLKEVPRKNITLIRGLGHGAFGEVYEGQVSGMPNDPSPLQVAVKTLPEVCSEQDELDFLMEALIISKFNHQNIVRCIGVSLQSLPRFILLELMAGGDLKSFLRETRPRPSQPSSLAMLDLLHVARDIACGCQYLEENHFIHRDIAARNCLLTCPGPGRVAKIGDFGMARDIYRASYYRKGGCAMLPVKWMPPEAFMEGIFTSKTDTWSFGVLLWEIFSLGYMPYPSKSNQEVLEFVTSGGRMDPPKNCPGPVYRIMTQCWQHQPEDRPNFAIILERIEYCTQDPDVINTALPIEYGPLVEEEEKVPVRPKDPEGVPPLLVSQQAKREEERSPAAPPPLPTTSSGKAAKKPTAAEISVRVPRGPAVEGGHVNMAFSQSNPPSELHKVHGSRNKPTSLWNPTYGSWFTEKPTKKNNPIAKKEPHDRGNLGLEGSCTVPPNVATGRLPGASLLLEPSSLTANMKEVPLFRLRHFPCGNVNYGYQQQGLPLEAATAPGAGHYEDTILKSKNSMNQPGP
Briefly: Cytotoxicity test (CellTiter-Glo), BaF3 [EML4-ALK]. The class given is cell-based. Conditions: 72 hours, CellTiter-Glo; read-out: IC50(nM) ALK (Ba/F3). The procedure, abridged: as §1

Series [2] has as its system BaF3 [EML4-ALK]. Briefly: Cytotoxicity test (CellTiter-Glo), BaF3 [EML4-ALK]. The class given is cell-based. To be noted: Ba/F3 cells. In outline:
as §1

For series [3], the target named is T2, ALK[L1196M] (Ba/F3) (Homo sapiens, UniProt Q9UM73, L1196M, cells depend on it).
T2 construct: IC50(nM) ALK[L1196M]; (Ba/F3); other: 72 hours, CellTiter-Glo; BaF3 [EMF4-AFK F1196M]; fused on or other part: Q9HC35 (Echinoderm microtubule-associated protein-like 4)
T2 sequence (Q9UM73 whole entry L1196M, the tested form may be a part): as the sequence (Q9UM73 whole entry, change not shown, the tested form may be a part) above, with L1196M counted along it
Briefly: Cytotoxicity test (CellTiter-Glo), BaF3 EML4-ALK L1196M. The class given is cell-based. To be noted: 72 hours, CellTiter-Glo; read-out: IC50(nM) ALK[L1196M] (Ba/F3). In outline: as §1

In series [4] the test system is ALK[L1196M] (Ba/F3). The series is described as above. To be noted: Ba/F3 cells. The class given is cell-based. In outline:
as §1

A short description of series [5]: Metabolic stability in human liver microsomes. The class given is in vitro ADME. To be noted: pH 7.4, 1 μM compound, 0.5 mg/mL protein; for microsomal CLint at 1 μM: read-out: CLint (uL/min/mg), Human liver microsome experiment; for half-life at 1 μM: read-out: t1/2 (min), Human liver microsome experiment. Background: Liver microsomes are vesicles of endoplasmic reticulum, rich in cytochrome P450 enzymes.

Series [6] is described as follows: Metabolic stability in rat liver microsomes. The class given is in vitro ADME. Conditions: SD, pH 7.4, 1 μM compound, 0.5 mg/mL protein; for microsomal CLint at 1 μM: read-out: CLint (uL/min/mg), Rat liver microsome experiment; for half-life at 1 μM: read-out: t1/2 (min), Rat liver microsome experiment.

Chain of ALK [WT] (Q9UM73 19-1620): as the sequence (Q9UM73 19-1620 L1196M) above, with M1178L counted along it
Chain of ALK G1202R (Q9UM73 19-1620 G1202R): as the sequence (Q9UM73 19-1620 L1196M) above, with M1178L, G1184R counted along it

Take `Cc1cc(Nc2ncc(Cl)c(Nc3ccccc3S(=O)(=O)C(C)C)n2)c(OC(C)C)cc1C1CCNCC1` [Ceritinib]: in the series with ALK F1174C/V, the “effect on F1174C/V” value was “no effect”. The “effect on G1202R” value on ALK G1202R is “neither of them has effect”.
Regarding `COc1cc(C(C)(C)CN)ccc1Nc1ncc(Cl)c(Nc2ccccc2P(C)(C)=O)n1` [Example 10, (2-((2-((4-(1-amino-2-methylpropan-2-yl)-2-methoxyphenyl)amino)-5-chloropyrimidin-4-yl)amino)phenyl)dimethylphosphine oxide], the IC50 is 2 to 5 nM on ALK [WT], 2 to 5 nM on ALK [L1196M] and at least 1000 nM in the series on BaF3 parental. The GI50 on BaF3 [EML4-ALK] [1] lay within 25 to 50 nM; on ALK[L1196M] (Ba/F3) [3], 100 to 200 nM. Moreover, in the series on BaF3 [EML4-ALK] [2], the “Selectivity parental/ALK” value was 100 to 200. For the same molecule, the “Selectivity parental/ALK[L1196M]” value in the series with ALK[L1196M] (Ba/F3) [4] is given as under 50. Further, the results for the microsomal CLint at 1 μM in series [5] and in [6] were 25.2 µL/min/mg and 15.1 µL/min/mg, respectively. Moreover, the half-life at 1 μM turned out to be 55 min in series [5] and 92 min in series [6].
For `COc1cc(CCN2CCCCC2)ccc1Nc1ncc(Cl)c(Nc2ccccc2P(C)(C)=O)n1` [Example 4, (2-((5-chloro-2-((2-methoxy-4-(2-(piperidin-1-yl)ethyl)phenyl)amino)pyrimidin-4-yl)amino)phenyl)dimethylphosphine oxide], the IC50 was at most 2 nM on ALK [WT], 2 to 5 nM at ALK [L1196M] and at least 1000 nM with BaF3 parental. In addition, the results for the GI50 on BaF3 [EML4-ALK] [1] and on ALK[L1196M] (Ba/F3) [3] were under 25 nM and 50 to 100 nM, respectively. The “Selectivity parental/ALK” value with BaF3 [EML4-ALK] [2] fell in the range of 200 to 500. Also, the “Selectivity parental/ALK[L1196M]” value in the series on ALK[L1196M] (Ba/F3) [4] is under 50. The values for the microsomal CLint at 1 μM in series [5] and in series [6] were 26.7 µL/min/mg and 34.7 µL/min/mg, respectively. The half-life at 1 μM in series [5] stood at 51.9 min; in series [6], 39.9 min.
